Experimental data as given in ChEMBL document CHEMBL5335856, “Structurally Diverse Alkaloids with Anti-Renal-Fibrosis Activity from the Centipede Scolopendra subspinipes mutilans” (J Nat Prod, 2024).
Active and inactive are the calls of the source. No cut-off for these calls is given here.

Tests used:
[1] = target: Protein FAM91A1 (Homo sapiens) (UniProt Q658Y4); assay: Binding affinity to Fam91a1 (unknown origin) assessed as fold change in protein upregulation at 200 uM preincubated for 2 hrs followed by pronase addition and measured after 30 mins by coomassie blue staining based SDS-PAGE gel analysis
Protein FAM91A1 (Homo sapiens), sequence (Q658Y4 whole entry): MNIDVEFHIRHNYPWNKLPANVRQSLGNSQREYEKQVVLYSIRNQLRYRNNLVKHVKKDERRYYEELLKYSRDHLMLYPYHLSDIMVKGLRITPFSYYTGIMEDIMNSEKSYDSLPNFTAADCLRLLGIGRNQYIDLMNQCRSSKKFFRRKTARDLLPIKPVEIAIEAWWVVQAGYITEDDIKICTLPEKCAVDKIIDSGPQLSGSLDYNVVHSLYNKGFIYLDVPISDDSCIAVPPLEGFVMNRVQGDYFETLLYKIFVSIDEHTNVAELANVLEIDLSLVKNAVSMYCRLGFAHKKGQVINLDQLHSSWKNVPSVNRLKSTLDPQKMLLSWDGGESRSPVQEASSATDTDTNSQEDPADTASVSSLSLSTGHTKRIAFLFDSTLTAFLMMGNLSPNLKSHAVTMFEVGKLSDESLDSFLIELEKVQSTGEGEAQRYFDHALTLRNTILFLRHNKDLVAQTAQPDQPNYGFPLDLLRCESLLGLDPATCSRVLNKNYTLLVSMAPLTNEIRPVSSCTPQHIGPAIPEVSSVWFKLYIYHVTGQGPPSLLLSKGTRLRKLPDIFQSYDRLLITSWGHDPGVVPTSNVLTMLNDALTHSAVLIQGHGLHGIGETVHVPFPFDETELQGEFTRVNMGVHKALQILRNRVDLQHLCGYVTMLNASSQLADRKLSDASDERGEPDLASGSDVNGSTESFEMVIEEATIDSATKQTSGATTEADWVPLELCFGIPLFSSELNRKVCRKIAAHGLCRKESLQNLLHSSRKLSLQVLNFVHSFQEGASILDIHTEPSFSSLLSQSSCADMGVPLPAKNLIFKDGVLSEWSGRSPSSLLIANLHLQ

[2] = target: Splicing factor 3A subunit 3 (Homo sapiens) (UniProt Q12874); assay: Binding affinity to Sf3a3 (unknown origin) assessed as fold change in protein upregulation at 200 uM preincubated for 2 hrs followed by pronase addition and measured after 30 mins by coomassie blue staining based SDS-PAGE gel analysis
NRK-52E [3] = assay: Anti-renal-fibrosis activity in TGF-beta1 induced Lamp2 knocked down rat NRK-52E cells assessed as downregulation of fibronectin expression at 40 uM; type: functional, cell-based
[4] = target: V-type proton ATPase subunit C 1 (Homo sapiens) (UniProt P21283); assay: Binding affinity to Atp6v1c1 (unknown origin) assessed as fold change in protein upregulation at 200 uM preincubated for 2 hrs followed by pronase addition and measured after 30 mins by coomassie blue staining based SDS-PAGE gel analysis
V-type proton ATPase subunit C 1 (Homo sapiens), sequence (P21283 whole entry): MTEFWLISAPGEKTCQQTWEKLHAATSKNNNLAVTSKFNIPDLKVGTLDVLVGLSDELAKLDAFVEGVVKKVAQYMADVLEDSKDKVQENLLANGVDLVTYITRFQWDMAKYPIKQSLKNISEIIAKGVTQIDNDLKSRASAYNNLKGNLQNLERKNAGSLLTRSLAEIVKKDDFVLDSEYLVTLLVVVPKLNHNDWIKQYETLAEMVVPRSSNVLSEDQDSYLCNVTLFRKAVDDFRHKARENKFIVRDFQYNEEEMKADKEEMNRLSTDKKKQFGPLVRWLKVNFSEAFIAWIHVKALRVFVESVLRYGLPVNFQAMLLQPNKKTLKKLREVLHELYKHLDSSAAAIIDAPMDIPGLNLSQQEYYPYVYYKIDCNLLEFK

NRK-52E [5] = assay: Anti-renal-fibrosis activity in TGF-beta1 induced Lamp2 knocked down rat NRK-52E cells assessed as downregulation of collagen I expression at 40 uM; type: functional, cell-based
[6] = target: FACT complex subunit SPT16 (Homo sapiens) (UniProt Q9Y5B9); assay: Binding affinity to Supt16h (unknown origin) assessed as fold change in protein upregulation at 200 uM preincubated for 2 hrs followed by pronase addition and measured after 30 mins by coomassie blue staining based SDS-PAGE gel analysis
[7] = target: Deoxycytidine kinase (Homo sapiens) (UniProt P27707); assay: Binding affinity to Dck (unknown origin) at 200 uM preincubated for 2 hrs followed by pronase addition and measured after 30 mins by coomassie blue staining based SDS-PAGE gel analysis
[8] = target: Prelamin-A/C (Homo sapiens) (UniProt P02545); assay: Binding affinity to LMNA (unknown origin) assessed as fold change in protein upregulation at 200 uM preincubated for 2 hrs followed by pronase addition and measured after 30 mins by coomassie blue staining based SDS-PAGE gel analysis
Prelamin-A/C (Homo sapiens), sequence (P02545 whole entry): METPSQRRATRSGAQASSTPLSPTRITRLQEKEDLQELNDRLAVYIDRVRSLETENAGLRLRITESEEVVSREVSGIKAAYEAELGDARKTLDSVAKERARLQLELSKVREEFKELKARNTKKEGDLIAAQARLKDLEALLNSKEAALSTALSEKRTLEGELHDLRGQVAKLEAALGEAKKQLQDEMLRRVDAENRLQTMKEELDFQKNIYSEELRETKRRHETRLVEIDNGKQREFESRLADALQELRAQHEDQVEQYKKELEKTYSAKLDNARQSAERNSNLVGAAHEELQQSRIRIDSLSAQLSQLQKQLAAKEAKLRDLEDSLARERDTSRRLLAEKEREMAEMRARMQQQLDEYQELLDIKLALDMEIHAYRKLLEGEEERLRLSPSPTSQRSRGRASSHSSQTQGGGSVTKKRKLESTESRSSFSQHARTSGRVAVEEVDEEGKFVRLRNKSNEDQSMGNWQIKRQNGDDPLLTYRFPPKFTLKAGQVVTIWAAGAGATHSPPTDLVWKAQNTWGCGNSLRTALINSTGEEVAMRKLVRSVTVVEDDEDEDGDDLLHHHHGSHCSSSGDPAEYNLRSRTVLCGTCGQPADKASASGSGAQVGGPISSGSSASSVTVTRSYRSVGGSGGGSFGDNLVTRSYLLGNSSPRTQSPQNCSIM

Testin (Homo sapiens) = Testin (Homo sapiens) (UniProt Q9UGI8); assay: Binding affinity to Tes (unknown origin) assessed as fold change in protein upregulation at 200 uM preincubated for 2 hrs followed by pronase addition and measured after 30 mins by coomassie blue staining based SDS-PAGE gel analysis
Testin (Homo sapiens), sequence (Q9UGI8 whole entry): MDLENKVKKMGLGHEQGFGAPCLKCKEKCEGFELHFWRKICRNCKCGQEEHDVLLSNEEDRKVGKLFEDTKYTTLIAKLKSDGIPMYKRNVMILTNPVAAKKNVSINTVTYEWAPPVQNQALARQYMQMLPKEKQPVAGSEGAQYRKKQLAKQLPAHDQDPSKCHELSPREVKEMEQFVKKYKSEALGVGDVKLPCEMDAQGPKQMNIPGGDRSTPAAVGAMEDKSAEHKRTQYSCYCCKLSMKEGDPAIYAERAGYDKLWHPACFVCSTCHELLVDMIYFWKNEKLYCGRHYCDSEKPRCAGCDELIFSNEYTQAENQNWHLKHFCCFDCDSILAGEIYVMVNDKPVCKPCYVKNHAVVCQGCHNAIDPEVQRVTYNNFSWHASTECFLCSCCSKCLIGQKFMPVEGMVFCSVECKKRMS

RAW264.7 = assay: Antiinflammatory activity against LPS-induced mouse RAW264.7 cells assessed as reduction in iNOS protein level at 20 uM; type: functional, cell-based
[9] = target: Poly(rC)-binding protein 3 (Homo sapiens) (UniProt P57721); assay: Binding affinity to Pcbp3 (unknown origin) at 200 uM preincubated for 2 hrs followed by pronase addition and measured after 30 mins by coomassie blue staining based SDS-PAGE gel analysis
Poly(rC)-binding protein 3 (Homo sapiens), sequence (P57721 whole entry): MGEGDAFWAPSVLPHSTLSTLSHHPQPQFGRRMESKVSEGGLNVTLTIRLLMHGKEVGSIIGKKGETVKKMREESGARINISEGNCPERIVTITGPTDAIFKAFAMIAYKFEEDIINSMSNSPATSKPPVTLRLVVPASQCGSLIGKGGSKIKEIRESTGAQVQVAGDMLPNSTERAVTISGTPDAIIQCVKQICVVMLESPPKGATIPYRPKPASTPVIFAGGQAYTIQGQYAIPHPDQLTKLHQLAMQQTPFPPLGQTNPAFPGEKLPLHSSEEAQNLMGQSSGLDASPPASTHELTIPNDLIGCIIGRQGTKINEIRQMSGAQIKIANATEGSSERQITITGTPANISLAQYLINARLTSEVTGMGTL

[10] = target: Ubiquitin-like modifier-activating enzyme 5 (Homo sapiens) (UniProt Q9GZZ9); assay: Binding affinity to Uba5 (unknown origin) at 200 uM preincubated for 2 hrs followed by pronase addition and measured after 30 mins by coomassie blue staining based SDS-PAGE gel analysis
Ubiquitin-like modifier-activating enzyme 5 (Homo sapiens), sequence (Q9GZZ9 whole entry): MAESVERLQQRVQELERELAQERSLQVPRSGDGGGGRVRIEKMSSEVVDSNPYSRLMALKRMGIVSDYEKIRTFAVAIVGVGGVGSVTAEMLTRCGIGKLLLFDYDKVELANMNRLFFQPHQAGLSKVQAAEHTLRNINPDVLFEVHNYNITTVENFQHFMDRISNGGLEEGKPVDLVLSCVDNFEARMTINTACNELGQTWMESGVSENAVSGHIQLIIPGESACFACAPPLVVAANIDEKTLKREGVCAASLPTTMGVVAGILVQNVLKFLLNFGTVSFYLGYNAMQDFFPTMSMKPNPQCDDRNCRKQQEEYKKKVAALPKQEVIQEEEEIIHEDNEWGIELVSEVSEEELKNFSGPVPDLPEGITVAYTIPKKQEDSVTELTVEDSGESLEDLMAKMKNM

[11] = target: Rho-related GTP-binding protein RhoB (Homo sapiens) (UniProt P62745); assay: Binding affinity to RHOB (unknown origin) at 200 uM preincubated for 2 hrs followed by pronase addition and measured after 30 mins by coomassie blue staining based SDS-PAGE gel analysis
Rho-related GTP-binding protein RhoB (Homo sapiens), sequence (P62745 whole entry): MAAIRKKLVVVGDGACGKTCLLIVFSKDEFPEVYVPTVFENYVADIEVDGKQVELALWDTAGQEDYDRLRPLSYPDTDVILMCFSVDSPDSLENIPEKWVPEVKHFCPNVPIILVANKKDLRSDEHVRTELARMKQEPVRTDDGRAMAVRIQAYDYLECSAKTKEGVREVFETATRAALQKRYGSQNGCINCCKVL

[12] = target: SWI/SNF-related matrix-associated actin-dependent regulator of chromatin subfamily D member 2 (Homo sapiens) (UniProt Q92925); assay: Binding affinity to Smarcd2 (unknown origin) at 200 uM preincubated for 2 hrs followed by pronase addition and measured after 30 mins by coomassie blue staining based SDS-PAGE gel analysis
SWI/SNF-related matrix-associated actin-dependent regulator of chromatin subfamily D member 2 (Homo sapiens), sequence (Q92925 whole entry): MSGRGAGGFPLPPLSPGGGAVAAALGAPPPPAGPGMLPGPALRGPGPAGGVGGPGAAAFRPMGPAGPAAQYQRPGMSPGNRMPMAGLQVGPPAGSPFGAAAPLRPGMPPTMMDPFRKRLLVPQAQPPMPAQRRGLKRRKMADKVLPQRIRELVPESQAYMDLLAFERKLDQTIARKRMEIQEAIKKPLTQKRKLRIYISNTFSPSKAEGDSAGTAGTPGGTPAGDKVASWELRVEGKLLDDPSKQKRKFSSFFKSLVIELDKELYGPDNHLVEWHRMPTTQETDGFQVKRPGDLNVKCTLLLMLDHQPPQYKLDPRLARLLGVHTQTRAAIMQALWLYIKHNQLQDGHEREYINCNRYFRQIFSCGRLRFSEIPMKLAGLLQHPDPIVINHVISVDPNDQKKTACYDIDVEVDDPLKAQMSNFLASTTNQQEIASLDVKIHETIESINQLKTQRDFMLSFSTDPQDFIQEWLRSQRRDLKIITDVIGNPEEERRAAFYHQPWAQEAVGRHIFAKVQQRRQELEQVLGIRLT

Homo sapiens = species: Homo sapiens; assay: Binding affinity to Wdr95 (unknown origin) at 200 uM preincubated for 2 hrs followed by pronase addition and measured after 30 mins by coomassie blue staining based SDS-PAGE gel analysis
[13] = target: Protein YIF1B (Homo sapiens) (UniProt Q5BJH7); assay: Binding affinity to Yif1b (unknown origin) assessed as fold change in protein upregulation at 200 uM preincubated for 2 hrs followed by pronase addition and measured after 30 mins by coomassie blue staining based SDS-PAGE gel analysis
NRK-52E [14] = assay: Anti-renal-fibrosis activity in TGF-beta1 induced Lamp2 knocked down rat NRK-52E cells assessed as downregulation of alpha-SMA expression at 40 uM; type: functional, cell-based
NRK-52E [15] = assay: Anti-renal-fibrosis activity in TGF-beta1 induced rat NRK-52E cells assessed as downregulation of fibronectin protein level at 20 uM by Western blot analysis; type: functional, cell-based
[16] = target: Nonsense-mediated mRNA decay factor SMG7 (Homo sapiens) (UniProt Q92540); assay: Binding affinity to Smg7 (unknown origin) at 200 uM preincubated for 2 hrs followed by pronase addition and measured after 30 mins by coomassie blue staining based SDS-PAGE gel analysis
NRK-52E [17] = assay: Anti-renal-fibrosis activity in TGF-beta1 induced rat NRK-52E cells assessed as downregulation of fibronectin protein level by Western blot analysis; type: functional, cell-based; conditions: dose 5-40 µM
[18] = target: Heat shock 70 kDa protein 4L (Homo sapiens) (UniProt O95757); assay: Binding affinity to Hspa4l (unknown origin) assessed as fold change in protein upregulation at 200 uM preincubated for 2 hrs followed by pronase addition and measured after 30 mins by coomassie blue staining based SDS-PAGE gel analysis
[19] = target: Protein YIF1A (Homo sapiens) (UniProt O95070); assay: Binding affinity to Yif1a (unknown origin) at 200 uM preincubated for 2 hrs followed by pronase addition and measured after 30 mins by coomassie blue staining based SDS-PAGE gel analysis
Protein YIF1A (Homo sapiens), sequence (O95070 whole entry): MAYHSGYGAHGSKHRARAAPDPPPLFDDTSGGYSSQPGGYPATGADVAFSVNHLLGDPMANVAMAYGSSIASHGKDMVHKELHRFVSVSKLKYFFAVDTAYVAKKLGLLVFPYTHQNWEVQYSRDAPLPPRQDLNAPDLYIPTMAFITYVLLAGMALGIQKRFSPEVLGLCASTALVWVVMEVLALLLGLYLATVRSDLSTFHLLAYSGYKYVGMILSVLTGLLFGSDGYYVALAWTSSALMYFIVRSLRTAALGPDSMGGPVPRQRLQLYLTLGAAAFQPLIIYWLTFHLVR

NRK-52E [20] = assay: Anti-renal-fibrosis activity in TGF-beta1 induced rat NRK-52E cells assessed as downregulation of collagen I protein level at 20 uM by Western blot analysis; type: functional, cell-based
[21] = target: 10 kDa heat shock protein, mitochondrial (Homo sapiens) (UniProt P61604); assay: Binding affinity to Hspe1 (unknown origin) assessed as fold change in protein upregulation at 200 uM preincubated for 2 hrs followed by pronase addition and measured after 30 mins by coomassie blue staining based SDS-PAGE gel analysis
10 kDa heat shock protein, mitochondrial (Homo sapiens), sequence (P61604 whole entry): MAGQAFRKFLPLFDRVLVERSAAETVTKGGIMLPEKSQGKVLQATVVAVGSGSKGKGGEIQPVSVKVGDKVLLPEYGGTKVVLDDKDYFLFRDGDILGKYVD

NRK-52E [22] = assay: Anti-renal-fibrosis activity in TGF-beta1 induced rat NRK-52E cells assessed as downregulation of alpha-SMA protein level at 20 uM by Western blot analysis; type: functional, cell-based
[23] = target: Transcription initiation factor TFIID subunit 6 (Homo sapiens) (UniProt P49848); assay: Binding affinity to Taf6 (unknown origin) at 200 uM preincubated for 2 hrs followed by pronase addition and measured after 30 mins by coomassie blue staining based SDS-PAGE gel analysis
Transcription initiation factor TFIID subunit 6 (Homo sapiens), sequence (P49848 whole entry): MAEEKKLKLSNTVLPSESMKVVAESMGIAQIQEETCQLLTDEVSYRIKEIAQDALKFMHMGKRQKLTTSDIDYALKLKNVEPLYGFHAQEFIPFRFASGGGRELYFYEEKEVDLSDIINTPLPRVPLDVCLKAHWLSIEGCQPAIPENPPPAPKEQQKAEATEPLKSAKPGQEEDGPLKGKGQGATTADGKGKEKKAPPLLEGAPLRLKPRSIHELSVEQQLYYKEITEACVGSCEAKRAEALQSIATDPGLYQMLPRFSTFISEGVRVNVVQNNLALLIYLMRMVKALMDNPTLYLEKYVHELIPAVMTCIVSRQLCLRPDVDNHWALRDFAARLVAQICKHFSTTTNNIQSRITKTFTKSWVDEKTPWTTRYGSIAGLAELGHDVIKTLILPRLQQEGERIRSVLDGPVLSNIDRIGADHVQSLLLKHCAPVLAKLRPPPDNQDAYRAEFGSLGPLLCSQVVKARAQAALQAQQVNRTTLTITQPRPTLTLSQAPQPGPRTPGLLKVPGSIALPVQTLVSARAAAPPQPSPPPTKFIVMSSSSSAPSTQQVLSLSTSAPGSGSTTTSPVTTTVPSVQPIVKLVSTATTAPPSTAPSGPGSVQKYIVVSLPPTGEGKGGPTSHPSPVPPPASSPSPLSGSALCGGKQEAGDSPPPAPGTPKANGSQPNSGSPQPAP

NRK-52E [24] = assay: Anti-renal-fibrosis activity in TGF-beta1 induced rat NRK-52E cells assessed as downregulation of collagen I expression at 40 uM; type: functional, cell-based
[25] = test system: RNA polymerase II-associated factor 1 homolog; assay: Binding affinity to Paf1 (unknown origin) at 200 uM preincubated for 2 hrs followed by pronase addition and measured after 30 mins by coomassie blue staining based SDS-PAGE gel analysis; conditions: Homo sapiens

SMILES: COc1c(O)nc2c(O)cccc2c1OC
- fold change (FC) [1]: 1.36
- fold change (FC) [2]: 1.8
- Activity (NRK-52E [3]): inactive
- fold change (FC) [4]: 1.21
- Activity (NRK-52E [5]): inactive
- fold change (FC) [6]: 1.23
- Activity [7]: Active
- fold change (FC) [8]: 1.34
- fold change (FC) (Testin (Homo sapiens)): 1.32
- Activity (RAW264.7): Active
- Activity [9]: Active
- Activity [10]: Active
- Activity [11]: Active
- Activity [12]: Active
- Activity (Homo sapiens): Active
- fold change (FC) [13]: 1.76
- Activity (NRK-52E [14]): inactive
- Activity (NRK-52E [15]): Active
- Activity [16]: Active
- Activity (NRK-52E [17]): Dose-Dependent Effect
- fold change (FC) [18]: 1.28
- Activity [19]: Active
- Activity (NRK-52E [20]): Active
- fold change (FC) [21]: 1.34
- Activity (NRK-52E [22]): Active
- Activity [23]: Active
- Activity (NRK-52E [24]): Active
- Activity [25]: Active
